Experimental findings from patent publication US20230028441A1, “NOVEL HETEROARYL-TRIAZOLE COMPOUNDS AS PESTICIDES” (Bayer Aktiengesellschaft, priority 2019, published 2023) are described below.

Type in all cases: in vivo
Test [1] deals with cattle tick larvae (Rhipicephalus microplus), strain Parkhurst, resistant against synthetic pyrethroids. The test can be described thus: Rhipicephalus (Boophilus) microplus in-vitro contact test, larval cattle tick. As to conditions: 5 μg/cm^2 (=500 g/ha), after 48 hours, read-out: efficacy (larvae dead or moribund). Summed up: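 Efficacy, 100% meaning all larvae dead or moribund, was judged at 48 h from loss of negative geotactic climbing. Larvae of the Parkhurst strain, 20–50 per tube, were exposed at 27° C and 85% humidity to acetone-coated tube surfaces; 900 ppm corresponded to 5 μg/cm^2.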

The subject of test [2] is adult engorged female ticks (Rhipicephalus microplus). Description: Rhipicephalus (Boophilus) microplus injection test. Particulars: 168 h, egg deposition after 7 days, read-out: efficacy (infertile eggs); for pest or weed control at 0.004 mg: 4 μg/animal; for pest or weed control at 0.02 mg: 20 μg/animal. The method, boiled down:
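Efficacy is the share of infertile eggs: 100% means none are fertile, 0% means all are fertile. Egg deposition was checked 7 days after injecting 1 μL of DMSO-diluted compound into the abdomen of five engorged female R. microplus, with doubtful eggs kept about 42 days to hatching. The stock was 10 mg in 0.5 mL DMSO.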

Test [3] concerns adult cat fleas (Ctenocephalides felis). The test can be described thus: Ctenocephalides felis in-vitro contact test, adult cat flea. As to conditions: 5 μg/cm^2 (=500 g/ha), after 48 hours, read-out: efficacy (fleas dead or moribund). The method, boiled down: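 Efficacy (%) counts fleas that are dead or moribund, meaning unable to escape heat (45-50 °C, ≤5 min) by climbing. Scoring was done 48 h after 5-10 adults were placed at room temperature in glass tubes. The tubes carried a dried acetone film of compound, 5 μg/cm^2 at 900 ppm.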

Test [4] has as its system adult unfed cat fleas (Ctenocephalides felis). Description: Ctenocephalides felis oral test. As to conditions: 48 h, 100 ppm in cattle blood, after 2 days. Summed up:
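Percent flea mortality recorded at 2 days. Compound was dissolved in dimethyl sulfoxide and diluted into cattle blood, which ~20 unfed adult cat fleas ingested through parafilm from a 37°C-heated chamber, their own chamber kept at room temperature.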

In test [5] the test system is southern root-knot nematode (Meloidogyne incognita). The test can be described thus: Meloidogyne incognita test. Particulars: 336 h, after 14 days, read-out: nematicidal activity (gall formation). The method, then: Solvent: 125.0 parts by weight of acetone
To produce a suitable preparation of active compound, 1 part by weight of active compound is mixed with the stated amount of solvent, and the concentrate is diluted with water to the desired concentration.
Vessels are filled with sand, a solution of the active ingredient, a suspension containing eggs and larvae of the southern root-knot nematode (Meloidogyne incognita) and salad seeds. The salad seeds germinate and the seedlings grow. Galls develop in the roots.
After 14 days the nematicidal activity is determined on the basis of the percentage of gall formation. 100% means no galls were found and 0% means the number of galls found on the roots of the treated plants was equal to that in untreated control plants.

In test [6] the test system is green peach aphid (Myzus persicae). The test can be described thus: Myzus persicae oral test. Particulars: 120 h. The method, boiled down:
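Five-day oral feeding assay measuring percent mortality of a mixed aphid population that draws compound-containing sugared IPL41 medium through sealing parafilm; the test preparation derives from 1 part compound per 100 parts acetone, diluted with water.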

Test [7] shares this test system. Description: Myzus persicae spray test. Particulars: foliar, 120 h, 100 g/ha, after 5 days, Chinese cabbage leaf disks. Summed up: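 Chinese cabbage leaf disks carrying all instars of Myzus persicae were sprayed with compound. The formulation was acetone/dimethylformamide diluted in water with 1000 ppm alkylarylpolyglycol ether emulsifier. Percent mortality was scored after 5 days, with 100% meaning all aphids killed.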

Test [8] relates to larvae of the southern green stink bug (Nezara viridula). Description: Nezara viridula spray test. Particulars: in Hordeum vulgare, 96 h. Summed up:
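Percent mortality of southern green stink bug larvae read 4 days after spraying infested Hordeum vulgare. Test solutions: compound in acetone plus dimethylformamide, diluted with emulsifier-containing water (1000 ppm alkylarylpolyglycol ether).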

Test [9] deals with fall armyworm larvae (Spodoptera frugiperda). Description: Spodoptera frugiperda spray test (maize leaf sections). Particulars: 168 h. Summed up: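 Percent kill of Spodoptera frugiperda larvae was recorded 7 days after infesting dried, treated maize leaf sections. Spray solutions were made from an acetone/DMF compound preparation diluted with 1000 ppm emulsifier-containing water.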

Test [10] deals with cattle ticks (Rhipicephalus microplus) strain Parkhurst, SP-resistant. Description: Rhipicephalus (Boophilus) microplus dip test. Particulars: 100 ppm, egg deposition after 7 days. The method, then: Test animal: cattle ticks (Rhipicephalus microplus) strain Parkhurst, SP-resistant
Solvent: dimethyl sulfoxide
To produce a suitable preparation of active compound, 10 mg of active compound are dissolved in 0.5 mL solvent, and the concentrate is diluted with water to the desired concentration.
This compound solution is pipetted into tubes. 8-10 engorged, adult, female cattle ticks (Rhipicephalus microplus) are placed in perforated tubes. These tubes are immersed in the aqueous compound solution until the ticks are completely moistened. After the liquid has drained off, the ticks are transferred to a filter paper in a plastic tray and stored in a climate chamber.
After 7 days egg deposition of fertile eggs is monitored. Eggs where fertility is not visible are stored in a climate chamber till hatching after about 42 days. An efficacy of 100% means all eggs are infertile; 0% means all eggs are fertile.

The test system of test [11] is larvae of the banded cucumber beetle (Diabrotica balteata). Description: Diabrotica balteata spray test. Particulars: 168 h, 100 g/ha (=32 μg/well), after 7 days, wheat seeds, read-out: efficacy (seedlings grown up). Summed up: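 Efficacy (%) read at day 7: 100% means seedlings grew like untreated, uninfested controls; 0% means no seedlings grew. Wheat seeds germinated 1 day on agar, sprayed with emulsified compound solution (1000 ppm emulsifier in water), then each well infested with 10-20 larvae.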

The subject of test [12] is adult brown dog ticks (Rhipicephalus sanguineus). The test can be described thus: Rhipicephalus sanguineus in-vitro contact test with adult brown dog ticks. Particulars: after 48 hours, read-out: efficacy (ticks dead or moribund); for pest or weed control at 1 µg/cm2, 100 g/ha: 1 μg/cm^2 (=100 g/ha); for pest or weed control at 5 µg/cm2, 500 g/ha: 5 μg/cm^2 (=500 g/ha). Summed up:
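Efficacy is the percentage of adult ticks dead or moribund, meaning immotile or uncoordinated and unable to escape 45-50° C. heat within 5 min. Read 48 h after 5-10 ticks were enclosed at room temperature in acetone-coated glass tubes. Dose 5 μg/cm^2, from a 900 ppm coating solution.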

The test system of test [13] is brown planthopper (Nilaparvata lugens). The test can be described thus: Nilaparvata lugens spray test. As to conditions: in Oryza sativa, 96 h. The method, boiled down:
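Rice plants (Oryza sativa) sprayed with compound in acetone/DMF diluted in water containing 1000 ppm alkylarylpolyglycol ether emulsifier, then infested with planthoppers. Mortality % scored after 4 days (100% = all killed, 0% = none killed).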

The test system of test [14] is caterpillars of the fall army worm (Spodoptera frugiperda). Description: Spodoptera frugiperda spray test (cotton leaves). As to conditions: 168 h. Summed up:
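Cotton leaves sprayed with compound in water/DMF with 1000 ppm alkylaryl polyglycol ether emulsifier, ammonium salt and/or penetration enhancer at 1000 ppm added if necessary, then infested with fall armyworm caterpillars. Mortality in % scored after 7 days; 100% means all caterpillars killed.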

Test [15] relates to two spotted spidermite (Tetranychus urticae). Description: Tetranychus urticae spray test, OP-resistant. Particulars: foliar, 144 h, after 6 days, French bean leaf disks. The method, then: Solvent: 78.0 parts by weight acetone • 1.5 parts by weight dimethylformamide
Emulsifier: alkylarylpolyglycol ether
To produce a suitable preparation of active compound, 1 part by weight of active compound is mixed with the stated amount of solvents and is diluted with water, containing an emulsifier concentration of 1000 ppm, to the desired concentration. Further test concentrations are prepared by dilution with emulsifier containing water.
French bean (Phaseolus vulgaris) leaf disks infected with all instars of the two spotted spidermite (Tetranychus urticae), are sprayed with a preparation of the active ingredient of the desired concentration.
After 6 days mortality in % is determined. 100% means all spider mites have been killed and 0% means none of the spider mites have been killed.

On to `CC(NC(=O)c1cc(Cl)cc(C(F)(F)F)c1)c1nc(C(=O)NC2CC2)nn1-c1ncccn1` (single isomer, unassigned) [I-076, 5-[1-[[3-chloro-5-(trifluoromethyl)benzoyl]amino]ethyl]-N-cyclopropyl-1-pyrimidin-2-yl-1,2,4-triazole-3-carboxamide], for which the pest or weed control at 5 µg/cm2 is 90% in test [1] and 100% in test [3]. Also, the pest or weed control at 0.004 mg in test [2] came to 100%. Besides, the pest or weed control at 0.02 mg in [2] stood at 100%. The compound further registered a mortality at 100 ppm in test [4] of 100%. Further, in test [5], the pest or weed control at 20 ppm was determined as 90%. Besides, the mortality at 4 ppm in test [6] was found to be 100%. Moreover, the mortality at 100 g/ha came out at 90% in test [7], 100% in [8] and 100% in [9].

Regarding `CC(NC(=O)c1cc(Cl)cc(C(F)(F)F)c1)c1nc(N)nn1-c1ncccn1` (racemic) [I-004, N-[1-(5-amino-2-pyrimidin-2-yl-1,2,4-triazol-3-yl)ethyl]-3-chloro-5-(trifluoromethyl)benzamide], the pest or weed control at 5 µg/cm2 was 90% in [1] and 100% in test [3]. Besides, in [10], the “efficacy (infertile eggs)” value was determined as 80%. For the same compound, the pest or weed control at 0.004 mg in [2] is 100%. In [4], the mortality at 100 ppm was 100%. In [11], the pest or weed control at 32 µg/disc, 100 g/ha was 100%. Further, in [6], the mortality at 4 ppm is 100%.

Turning to `CC(NC(=O)c1cc(C(F)(F)F)cc(C(F)(F)F)c1)c1nc(N(C)C(=O)OC(C)(C)C)nn1-c1ncccn1` (racemic) [I-009, tert-butyl N-[5-[1-[[3,5-bis(trifluoromethyl)benzoyl]amino]ethyl]-1-pyrimidin-2-yl-1,2,4-triazol-3-yl]-N-methyl-carbamate], the pest or weed control at 5 µg/cm2 in test [1] came to 100%; in test [3], 90%. The “efficacy (infertile eggs)” value in test [10] is reported as 80%. For the same compound, the pest or weed control at 0.004 mg in test [2] stood at 100%. In addition, the mortality at 100 ppm in test [4] was determined as 100%. Also, the pest or weed control at 1 µg/cm2, 100 g/ha in test [12] worked out at 80%. In addition, the pest or weed control at 5 µg/cm2, 500 g/ha in test [12] was determined as 100%. Also, the pest or weed control at 32 µg/disc, 100 g/ha in [11] was found to be 100%. This compound had a mortality at 4 ppm in test [6] of 100%. Moreover, the mortality at 100 g/ha in [8] and in test [9] was 100% in each case.

As to `CNC(=O)c1nc(C(C)NC(=O)c2cc(Cl)cc(C(F)(F)F)c2)n(-c2ncccn2)n1` (stereo not shown) [I-077], the pest or weed control at 0.004 mg in test [2] is 100%. Besides, the pest or weed control at 0.02 mg in [2] worked out at 100%. The pest or weed control at 5 µg/cm2 in [3] was 90%. The same compound came in with a mortality at 100 ppm in [4] of 100%. Moreover, the pest or weed control at 20 ppm in [5] is 90%. Further, the mortality at 4 ppm in test [6] stood at 100%. In addition, the values for the mortality at 100 g/ha in test [7], in test [8] and in test [13] were 90%, 100% and 90%, respectively.

With `CC(NC(=O)c1cc(Cl)cc(S(C)(=O)=O)c1)c1nc(NC(=O)C2CC2)nn1-c1ccc(Cl)cn1` (stereo not shown) [I-013], in [1], the pest or weed control at 5 µg/cm2 was 90%. The “efficacy (infertile eggs)” value in [10] was 80%. Further, in test [2], the pest or weed control at 0.004 mg was 100% and the pest or weed control at 0.02 mg was 100%. Further, the mortality at 100 ppm in [4] was 100%. For the same compound, the mortality at 20 ppm in [14] worked out at 100%.

For the compound `CC(NC(=O)c1cc(Cl)cc(C(F)(F)F)c1)c1nc(NC(=O)OC(C)(C)C)nn1-c1ccc(Cl)cn1` (stereo not shown) [I-003], in test [2], the pest or weed control at 0.004 mg amounted to 80% and the pest or weed control at 0.02 mg is 100%. In addition, the mortality at 500 g/ha in test [15] stood at 90%.

With `CNc1nc([C@H](C)NC(=O)c2cc(Br)cc(OC(F)(F)F)c2)n(-c2ncccn2)n1` [I-130], the pest or weed control at 5 µg/cm2 in [1] and in test [3] was 100% in each case. Also, in [12], the pest or weed control at 1 µg/cm2, 100 g/ha is 100%. Moreover, in test [12], the pest or weed control at 5 µg/cm2, 500 g/ha worked out at 100%. Moreover, the pest or weed control at 32 µg/disc, 100 g/ha in test [11] was 100%. In addition, in test [5], the pest or weed control at 20 ppm came to 90%. Besides, the mortality at 100 g/ha in [7] and in [9] was 100% in each case. Further, the values for the mortality at 500 g/ha in test [8] and in test [13] were 100% and 90%, respectively. Also, the mortality at 20 ppm in [14] turned out to be 100%.

Take `CNc1nc([C@H](C)NC(=O)c2cc(OC(F)(F)F)cc(C3CC3)c2)n(-c2ncccn2)n1` [I-132]: the pest or weed control at 5 µg/cm2 in test [1] and in test [3] was 100% throughout. The pest or weed control at 1 µg/cm2, 100 g/ha in [12] was determined as 100%. Moreover, in test [12], the pest or weed control at 5 µg/cm2, 500 g/ha was 100%. The pest or weed control at 32 µg/disc, 100 g/ha in [11] worked out at 100%. Also, in [5], the pest or weed control at 20 ppm was 90%. In addition, the mortality at 100 g/ha in test [7] is 90%; in [9] it was 100%. In test [8], this compound yielded a mortality at 500 g/ha of 100%. In test [14], this compound came in with a mortality at 20 ppm of 100%.

For orientation: mortality means the share of the test organisms that died. Read a low mortality as more survivors.
